This experiment deals with Endothelial PAS domain-containing protein 1 (Homo sapiens, UniProt Q99814).
Chain of Endothelial PAS domain-containing protein 1 (Q99814 whole entry, the tested form may be a part): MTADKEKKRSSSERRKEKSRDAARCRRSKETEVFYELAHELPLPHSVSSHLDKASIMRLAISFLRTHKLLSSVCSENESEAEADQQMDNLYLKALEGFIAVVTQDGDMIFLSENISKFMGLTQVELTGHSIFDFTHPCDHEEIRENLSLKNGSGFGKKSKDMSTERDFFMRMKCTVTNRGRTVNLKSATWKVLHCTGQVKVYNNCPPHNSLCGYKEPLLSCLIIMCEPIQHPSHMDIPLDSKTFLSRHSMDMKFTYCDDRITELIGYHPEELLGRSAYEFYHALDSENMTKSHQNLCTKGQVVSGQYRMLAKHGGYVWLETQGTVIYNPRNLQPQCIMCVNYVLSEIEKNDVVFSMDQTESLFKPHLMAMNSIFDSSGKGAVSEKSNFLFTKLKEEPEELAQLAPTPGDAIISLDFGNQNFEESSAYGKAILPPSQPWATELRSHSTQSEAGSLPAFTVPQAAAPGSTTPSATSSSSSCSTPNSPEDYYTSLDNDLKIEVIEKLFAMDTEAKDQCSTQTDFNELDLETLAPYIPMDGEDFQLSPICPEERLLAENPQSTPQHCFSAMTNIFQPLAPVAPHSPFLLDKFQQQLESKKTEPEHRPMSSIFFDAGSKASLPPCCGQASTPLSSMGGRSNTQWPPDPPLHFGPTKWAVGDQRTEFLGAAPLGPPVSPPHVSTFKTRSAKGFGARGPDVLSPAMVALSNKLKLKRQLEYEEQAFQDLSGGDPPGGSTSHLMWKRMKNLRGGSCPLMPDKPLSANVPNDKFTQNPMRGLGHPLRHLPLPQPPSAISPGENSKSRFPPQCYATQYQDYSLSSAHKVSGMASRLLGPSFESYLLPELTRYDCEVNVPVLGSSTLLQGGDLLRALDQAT

Description: Agonist activity at HIF-2alpha (unknown origin) expressed in 786-O cells measured after 24 hrs by HRE based luciferase reporter gene assay

In general, EC50 refers to the concentration that produces a half-maximal response. Higher therefore signals lower potency in that assay. Take `Clc1cc(Cl)cc(Nc2nsc3ccccc23)c1`: the EC50 was 2.92 µM.

For the origin of these results see ChEMBL document CHEMBL4831546, “Discovery of a Potent and Orally Bioavailable Hypoxia-Inducible Factor 2α (HIF-2α) Agonist and Its Synergistic Therapy with Prolyl Hydroxylase Inhibitors for the Treatment of Renal Anemia” (J Med Chem, 2021).
